Test results from patent US20070232532A1, “Use of cyclosporin alkene analogues for preventing or treating viral-induced disorders” (priority 2006, published 2007).
In brackets after ≈: the same amount, converted by molar mass.

Key:
[1] = system: concanavalin A-stimulated splenocytes; assay: Concanavalin A-stimulated splenocyte assay; format: cell-based, BALB/c mice; details: for IC50: immunosuppressive activity, ConA-stimulated murine splenocytes, [3H]thymidine incorporation, 7 point curves
Experimental: Concanavalin A-Stimulated Splenocyte Assay
Male BALB/c mice, at 5 to 7 weeks of age, were sacrificed by CO2 inhalation. Spleens were removed and dissociated by pushing through a nylon cell strainer. The splenocytes were washed in RPMI 1640/5% fetal calf serum (FCS) and pelleted at 400×g. Red blood cells were then lysed by resuspending the cell pellet in ACK lysis buffer (150 mM NH4Cl, 1 mM KHCO3, 0.1 mM EDTA, 3 mL per spleen) for 10 min at room temperature. After pelleting at 400×g, the cells were washed by resuspending in RPMI 1640/5% FCS and repelleting. The cell pellet was resuspended in RPMI 1640/5% FCS and again passed through a cell strainer to remove cell aggregates. The cells were then counted and adjusted to 2×10^6 cells/ml in RPMI 1640/10% FCS/50 μM 2-mercaptoethanol. Cell viability was assessed by Trypan blue staining. […] The cells were cultured in a 37° C. CO2 incubator for 2 days and then pulsed with 1 μCi of [^3H]thymidine for 6 hours. Cells were harvested onto filtermats with a TomTec 96 well plate harvester and lysed with H2O. The filtermat and scintillation fluid were sealed in a plastic sleeve. [^3H]thymidine incorporation was measured with a Wallac Trilux plate counter. Initial screens were done at a fixed value of 100 ng/ml test compound. IC50s were calculated from 7 point concentration-response curves using GraphPad software.

calcineurin = details: cited from earlier work
HIV-1 = details: literature report; cited from earlier work
[2] = system: immunosuppressive activity; details: Mlynar et al. 1997; cited from earlier work
cyclophilin A = cyclophilin A (Homo sapiens, UniProt P62937); details: cited from earlier work
Sequence of cyclophilin A (P62937 whole entry): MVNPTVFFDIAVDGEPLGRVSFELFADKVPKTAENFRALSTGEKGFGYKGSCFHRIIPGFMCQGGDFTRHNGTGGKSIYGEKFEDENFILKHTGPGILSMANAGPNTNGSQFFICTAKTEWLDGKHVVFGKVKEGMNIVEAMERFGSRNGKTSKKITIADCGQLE

[3] = system: hepatitis C virus replication; details: Paeshuyse et al. 2005; cited from earlier work

Row | Compound | IC50 [1] | also measured
1 | CC[C@@H]1NC(=O)[C@H]([C@H](O)[C@H](C)CC=CCF)N(C)C(=O)[C@H](C(C)C)N(C)C(=O)[C@H](CC(C)C)N(C)C(=O)[C@H](CC(C)C)N(C)C(=O)[C@@H](C)NC(=O)[C@H](C)NC(=O)[C@H](CC(C)C)N(C)C(=O)[C@H](C(C)C)NC(=O)[C@H](CC(C)C)N(C)C(=O)CN(C)C1=O [Example 34, cyclosporin allylic fluoride] | 12 ng/mL (≈ 9.83 nM) | –
2 | trans-cyclosporin diene-d2 [Example 69] | 4 ng/mL | –
3 | trans-deuterated cyclosporin vinyl iodide [Example 9] | 7 ng/mL | potency in immunosuppression compared to cyclosporin A ([1]; FIG. 1, ConA-stimulated splenocyte assay): enhanced potency
4 | C/C=C/C[C@@H](C)[C@@H](O)[C@H]1C(=O)N[C@@H](CC)C(=O)N(C)CC(=O)N(C)[C@@H]([C@@H](C)CC)C(=O)N[C@@H](C(C)C)C(=O)N(C)[C@@H](CC(C)C)C(=O)N[C@@H](C)C(=O)N[C@H](C)C(=O)N(C)[C@@H](CC(C)C)C(=O)N(C)[C@@H](CC(C)C)C(=O)N(C)[C@@H](C(C)C)C(=O)N1C [SDZ NIM 811] | – | inhibition of calcineurin (calcineurin): does not inhibit calcineurin; anti-HIV-1 activity (HIV-1): potent and selective anti-HIV-1 activity; immunosuppressive activity [2]: completely devoid of immunosuppressive activity
5 | CC[C@@H]1NC(=O)[C@H]([C@H](O)[C@H](C)C/C=C/Br)N(C)C(=O)[C@H](C(C)C)N(C)C(=O)[C@H](CC(C)C)N(C)C(=O)[C@H](CC(C)C)N(C)C(=O)[C@@H](C)NC(=O)[C@H](C)NC(=O)[C@H](CC(C)C)N(C)C(=O)[C@H](C(C)C)NC(=O)[C@H](CC(C)C)N(C)C(=O)CN(C)C1=O (relative stereo) [Example 19, trans-cyclosporin vinyl bromide] | 9 ng/mL | –
6 | cyclosporin vinyl iodide [Example 6] | 11 ng/mL | –
7 | C/C=C/C[C@@H](C)[C@@H](O)[C@H]1C(=O)N[C@@H](CC)C(=O)N(C)[C@H](C)C(=O)N(CC)[C@@H](C(C)C)C(=O)N[C@@H](C(C)C)C(=O)N(C)[C@@H](CC(C)C)C(=O)N[C@@H](C)C(=O)N[C@H](C)C(=O)N(C)[C@@H](CC(C)C)C(=O)N(C)[C@@H](CC(C)C)C(=O)N(C)[C@@H](C(C)C)C(=O)N1C [DEBIO-025] | – | binding affinity for cyclophilin A (cyclophilin A): potent binding affinity; inhibition of hepatitis C virus replication [3]: potent and selective inhibition of hepatitis C virus replication
8 | C=C/C=C/C[C@@H](C)[C@@H](O)[C@H]1C(=O)N[C@@H](CC)C(=O)N(C)[C@H](CO)C(=O)N(C)[C@@H](CC(C)C)C(=O)N[C@@H](C(C)C)C(=O)N(C)[C@@H](CC(C)C)C(=O)N[C@@H](C)C(=O)N[C@H](C)C(=O)N(C)[C@@H](CC(C)C)C(=O)N(C)[C@@H](CC(C)C)C(=O)N(C)[C@@H](C(C)C)C(=O)N1C (relative stereo) [Example 67, trans-cyclosporin diene] | 7 ng/mL (≈ 5.62 nM) | –
9 | CC[C@@H]1NC(=O)[C@H]([C@H](O)[C@H](C)CC=CC(F)(F)F)N(C)C(=O)[C@H](C(C)C)N(C)C(=O)[C@H](CC(C)C)N(C)C(=O)[C@H](CC(C)C)N(C)C(=O)[C@@H](C)NC(=O)[C@H](C)NC(=O)[C@H](CC(C)C)N(C)C(=O)[C@H](C(C)C)NC(=O)[C@H](CC(C)C)N(C)C(=O)CN(C)C1=O [Example 31, cyclosporin fluoride] | 38 ng/mL (≈ 30.2 nM) | –
